The values that follow are results of earlier work, collected in patent US20140080845A1, “USE OF ALLOPURINOL FOR THE TREATMENT OF HAND FOOT SKIN REACTION” (NOBERA PHARMA, S.L., priority 2009, published 2014).

For data set [1] the following is noted: meta-analysis, treated patients.

SMILES strings stand for the structures. Read-outs that look alike come from different tables or passages of the source.

Consider `CNC(=O)c1cc(Oc2ccc(NC(=O)Nc3ccc(Cl)c(C(F)(F)F)c3)cc2)ccn1` [sorafenib], for which, in data set [1], the “summary incidence of HFSR, grade 3” value is listed as 8.9% and the “summary incidence of HFSR, grades 1-3” value was 33.8%.

Turning to `Oc1ncnc2[nH]ncc12` [Allopurinol, 1H-pyrazolo[3,4-d] pyrimidin-4-ol], the solubility entry (in chloroform and in ether) is “practically insoluble”; the solubility result (in dilute solutions of alkali hydroxides) is “dissolves”; the solubility result (in water and alcohol) is on record as “very slightly soluble”.

As to `CCN(CC)CCNC(=O)c1c(C)[nH]c(/C=C2\C(=O)Nc3ccc(F)cc32)c1C` [sunitinib], in data set [1], the “summary incidence of HFSR, grade 3” value was 5.5% and the “summary incidence of HFSR, grades 1-3” value is listed as 18.9%.
